We go through 10 compounds from the supplement of paper PMC4862054.

Common to all, as to assay: normalised viability (% of control), CellTiter-Blue; higher = more viable cells (about 100 = DMSO control)
Common to all, as to settings: incubation time: 72 h
(Alamar Blue is a resazurin reagent that responds to reducing activity.)

Assay [1] concerns CAL-148. As for the experimental part:
(§1)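 DSRT, CellTiter-Blue viability, 72 h incubation. Signal is normalised to DMSO and benzethonium chloride controls. Value is the normalised response at dose 8.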

For assay [2], the system named is CAL-51. As for the experimental part:
as §1

Assay [3] has as its system CAL-85-1. Here is the method:
as §1

For assay [4], the system named is HDQ-P1. As for the experimental part:
as §1

Assay [5] has as its system MDA-MB-453. Here is the method: as §1
For assay [6], the system named is CAL-148. Here is the method: (§2)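 DSRT, CellTiter-Blue viability, 72 h incubation. Signal is normalised to DMSO and benzethonium chloride controls. Value is the normalised response at dose 9.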
The source holds these as a separate data set.

In assay [7] the test system is CAL-51. Here is the method:
as §2
This is another data set of the same source.

The test system of assay [8] is CAL-85-1. As for the experimental part: as §2
The source holds these as a separate data set.

The subject of assay [9] is DU-4475. Here is the method: as §2
Assay [10] concerns HDQ-P1. As for the experimental part: as §2
This is another data set of the same source.

Assay [11] deals with MDA-MB-453. As for the experimental part:
as §2
The source holds these as a separate data set.

The subject of assay [12] is CAL-148. As for the experimental part:
(§3)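 DSRT, CellTiter-Blue viability, 72 h incubation. Signal is normalised to DMSO and benzethonium chloride controls. Value is the normalised response at dose 6.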
This is another data set of the same source.

The subject of assay [13] is CAL-51. Here is the method:
as §3
The source holds these as a separate data set.

For assay [14], the system named is CAL-85-1. Here is the method: as §3
This is another data set of the same source.

Assay [15] relates to DU-4475. As for the experimental part:
as §3
This is another data set of the same source.

The subject of assay [16] is HDQ-P1. As for the experimental part:
as §3
The source holds these as a separate data set.

Assay [17] deals with MDA-MB-453. Here is the method:
as §3
The source holds these as a separate data set.

Values joined by “and” are separate entries in the source; they are usually repeats but may differ in a detail not shown here. Identical values can stand only once.

`O=C(CCCCCCC(=O)Nc1ccccc1)NO` [Vorinostat] (3000 nM): the normalised viability with CAL-148 [1] is 49.7% and 59.7%; in the assay with CAL-51 [2], 101% and 94.8%; with CAL-85-1 [3], 59.5% and 66.1%; with HDQ-P1 [4] it was 68.1% and 62.5%; in the assay with MDA-MB-453 [5], 12.2% and 9.84%.
On to `COc1c2occc2cc2ccc(=O)oc12` [Methoxsalen] (10000 nM), for which the normalised viability in the assay on CAL-148 [6] came to 53.6%; in the assay on CAL-51 [7] it was 49.2%; with CAL-85-1 [8], 61%; in the assay on DU-4475 [9], 71.6%; in the assay with HDQ-P1 [10], 128%; in the assay on MDA-MB-453 [11] it was 28.5%.
As to `Cc1cc(Nc2nc(N[C@@H](C)c3ncc(F)cn3)ncc2Cl)[nH]n1` [AZD1480] (30 nM), the normalised viability amounted to 103% with CAL-148 [12]; 113% with CAL-51 [13]; 91.3% with CAL-85-1 [14]; 109% in the assay on DU-4475 [15]; 78.1% with HDQ-P1 [16]; 117% with MDA-MB-453 [17].
As to `C=CCn1c(=O)c2cnc(Nc3ccc(N4CCN(C)CC4)cc3)nc2n1-c1cccc(C(C)(C)O)n1` [MK1775] (300 nM), the normalised viability is 45.3% with CAL-148 [12]; 62.9% in the assay on CAL-51 [13]; 66.6% in the assay with CAL-85-1 [14]; 68.7% in the assay with DU-4475 [15]; 49.3% in the assay with HDQ-P1 [16]; 60% in the assay with MDA-MB-453 [17].
As to `CO[C@@H]1[C@H](N(C)C(=O)c2ccccc2)C[C@H]2O[C@]1(C)n1c3ccccc3c3c4c(c5c6ccccc6n2c5c31)C(=O)NC4` [Midostaurin] (300 nM), the normalised viability in the assay on CAL-148 [12] turned out to be 106%; in the assay with CAL-51 [13], 28.9%; in the assay with CAL-85-1 [14], 86.6%; in the assay on DU-4475 [15], 76%; in the assay with HDQ-P1 [16], 53.6%; in the assay on MDA-MB-453 [17] it was 65.5%.
Take `Nc1ccn([C@@H]2O[C@H](CO)[C@@H](O)C2(F)F)c(=O)n1` [Gemcitabine] (30 nM): the normalised viability was 42.1% with CAL-148 [12]; 42.9% in the assay on CAL-51 [13]; 58.7% in the assay with CAL-85-1 [14]; 72.8% in the assay on DU-4475 [15]; 74% in the assay on HDQ-P1 [16]; 60.2% in the assay with MDA-MB-453 [17].
With `CC[C@H](CO)Nc1nc(NCc2ccccc2)c2ncn(C(C)C)c2n1` [Roscovitine] (300 nM), the normalised viability with CAL-148 [12] came to 88.6%; in the assay with CAL-51 [13], 104%; in the assay on CAL-85-1 [14] it was 93.7%; in the assay with DU-4475 [15], 97.5%; with HDQ-P1 [16] it was 59.7%; in the assay with MDA-MB-453 [17], 86.9%.
On to `CC[C@H](CO)Nc1nc(NCc2ccccc2)c2ncn(C(C)C)c2n1` [Roscovitine] (10000 nM), for which the normalised viability was found to be 80.8% with CAL-148 [6]; 85% in the assay on CAL-51 [7]; 61.9% in the assay with CAL-85-1 [8]; 96.6% in the assay with DU-4475 [9]; 75.6% in the assay on HDQ-P1 [10]; 63.4% in the assay on MDA-MB-453 [11].
Regarding `CN(Cc1cnc2nc(N)nc(N)c2n1)c1ccc(C(=O)N[C@@H](CCC(=O)O)C(=O)O)cc1` [Methotrexate] (10000 nM), the normalised viability in the assay with CAL-148 [6] was found to be 69.1%; in the assay with CAL-51 [7] it was 39.2%; with CAL-85-1 [8], 65.3%; in the assay on DU-4475 [9] it was 102%; in the assay on HDQ-P1 [10], 99.7%; in the assay with MDA-MB-453 [11] it was 90%.
Turning to `CCN(CC)CCCC(C)Nc1ccnc2cc(Cl)ccc12` (centres undefined) [Chloroquine] (990 nM), the normalised viability in the assay with CAL-148 [6] was 84.8%; in the assay on CAL-51 [7], 89.5%; in the assay on CAL-85-1 [8] it was 91.3%; in the assay on DU-4475 [9], 115%; in the assay with HDQ-P1 [10] it was 126%; in the assay with MDA-MB-453 [11] it was 98.4%.
